# Measurements from US20120232000A1, “METHODS AND COMPOSITIONS FOR PROMOTING REGENERATION BY INCREASING INTRACELLULAR SODIUM CONCENTRATION” (priority 2009, published 2012).
# Entries after “also recorded” stand apart in the source; their conditions may differ.
# What was measured:
# Type in all cases: in vivo, Xenopus laevis
# [1] = test system: NaV1.2 protein; assay: Immunohistochemistry of NaV1.2 protein in the regeneration bud
# From the text: In order to better understand the role of NaV1.2, we examined its potential relationships with known regenerative pathways. First, we investigated the pathways potentially regulating NaV1.2 expression. […] However, in amputated tails treated with Concanamycin, a specific inhibitor of V-ATPase activity (Huss et al., 2002) that blocks regeneration (Adams et al., 2007), the expression of NaV1.2 protein was absent at 24 and 48 hpa (FIGS. 4A-4C). […] We next examined NaV1.2 protein expression during the refractory stages, an endogenous period during development in which tadpoles temporarily lose the ability of caudal regeneration (Beck et al., 2003). NaV1.2 protein was not detected in 24-hour tail stumps amputated during this non-regenerative state (FIG. 4D).
# (§1) Xenopus embryos were fixed overnight in MEMFA, heated for 2 hrs at 65° C. in 50% formamide (to inactivate endogenous alkaline phosphatases), permeabilized in PBTr+0.1% Triton X100 for 30 min, and processed for immunohistochemistry using alkaline phosphatase secondary antibody (Levin, 2004) until signal was optimal and background minimal (usually 12 hrs). The expression profiles represent consensus patterns obtained from the analysis of 8-12 embryos at each stage. Pan-anti-NaV (Sigma S-8809), anti-acetylated a-tubulin (Sigma #T6793), and anti-phospho-H3 (Upstate #05-598) antibodies were used at 1:1000.
# [2] = test system: Xenopus tail regeneration; assay: Tail regeneration assay, tails amputated at stages 40-41, scored at 7 days; conditions: for tail regeneration: treatment after amputation at st. 40, 7 days
# Method: Xenopus laevis larvae were cultured using standard protocols approved for the care of experimental organisms. Tails at stages 40-41, or stages 45-47 (refractory period) (Nieuwkoop and Faber, 1967) were amputated under a dissecting microscope using a scalpel blade at the midpoint between the anus and the tip. Tadpoles were cultured in (0.1×MMR±inhibitor) at 22° C. for 7 days and scored for tail regeneration. Drug experiments were carried out at least in duplicate.
# To quantify and compare regeneration efficiency of tadpoles treated with different reagents, the “Regeneration Index” (RI) was determined. The RI evaluates the efficiency of regeneration for each treatment and allows for comparison of the effect of various treatments to controls.
# Individual animals for each specific treatment were each scored as follows:
# Full: complete regeneration (indistinguishable from uncut controls).
# Good: robust regeneration with minor defects (e.g., missing fin, curved axis).
# Poor: poor regeneration (hypomorphic/defective regenerates).
# For each treatment, the percentage of regenerates belonging to each category were calculated, and then multiplied by 3, 2, 1 or 0, respectively for, Full, Good, Poor and None. The resulting R1 for each condition tested ranges from 0 to 300, with 0 corresponding to no regeneration, and 300 for complete regeneration.
# Xenopus laevis larvae were cultured via approved protocols (IACUC #M2008-08). Tails at stages 40-41, or stages 45-47 (refractory period) (Nieuwkoop and Faber, 1967) were amputated at the midpoint between the anus and the tip. Tadpoles were cultured in (0.1×MMR±reagent) at 22° C. for 7 days and scored for tail regeneration. […]
# [3] = test system: Na^+ influx into the regeneration bud; assay: Imaging of sodium flux with CoroNa Green indicator dye
# Method: NaV1.2 is a membrane-bound Na^+ transporter that regulates the influx of Na^+ into cells (Yu and Catterall, 2003). Thus, we examined the functional consequences of Na^+ transport in regeneration using MS-222. […] In intact tails, a few randomly distributed cells appear positive for the CoroNa Green signal relative to the majority of the tail population (FIG. 3A). […] When the amputated tails were treated with the NaV inhibitor, MS-222, the CoroNa Green signal was abolished (FIG. 3C, p<0.02), confirming that inhibition of NaV1.2 function abrogates Na^+ influx into the bud.
# At 23 hpa, tadpoles were incubated in 90 μM of CoroNa Green indicator dye (Invitrogen) in 0.1×MMR for 45 minutes and washed twice in 0.1×MMR+30 uM BTS (to immobilize tadpole movement). At 24 hpa, the CoroNa Green signal was excited at […] and fluorescence emission data was collected at […]. Data was analyzed using IPLab software. For induction of Na^+ current, 0.1×MMR was supplemented with sodium gluconate (Sigma) to increase the Na^+ concentration to 90 mM. For refractory period analysis, tails were amputated at st. 47, at 18 hpa, and animals were treated with or without 90 mM Na^+ and 20 μM monensin (Sigma) in 0.1×MMR with 90 μM CoroNa Green for 45 minutes and washed twice in 0.1×MMR+50 uM BTS. Imaging of Vmem using DiBAC4(3) (Invitrogen) was performed exactly as described in (Adams et al., 2007).
# [4] = test system: H3P-positive (mitotic) cells; assay: Anti-H3P immunohistochemistry of mitotic cells in amputated tails; conditions: 48 hpa, versus control siblings
# From the text: To understand the cellular basis for regenerative failure in animals with loss of NaV1.2 function, we examined proliferation in MS-222-treated amputated tails. During development, mitotic cells are observed to be randomly located in the growing tail. […]. We quantified the number and distribution of proliferating cells in regenerating tails at 48 hpa using an antibody to phosphorylated Histone 3B (H3P), a marker of the G2/M transition of the cell cycle that identifies mitotic cells in Xenopus and many other systems (Adams et al., 2007; Saka and Smith, 2001). […]. Many H3P-positive cells are seen in the wild-type regeneration bud (FIG. 3E) but very few are detected in MS-222 treated buds (FIG. 3F).
# as §1
# [5] = test system: Notch1; assay: RNA in situ hybridization of Notch1 in the regeneration bud; conditions: 48 hpa, MS-222 after amputation
# From the text: (§2) RNA expression of Notch, Msx1, and BMP components can be observed after 24 hpa in the regenerating tail tissues. We performed in situ hybridization using gene-specific RNA probes to examine the expression patterns of Notch and Msx1 in the regeneration bud after treatment with MS-222. In wild-type regeneration buds at 48 hpa, Notch1 is normally expressed in the neural ampulla and in the mesenchymal region of the regeneration bud (FIGS. 4F and 4H). […] At 48 hpa, Msx1 was expressed in the neural ampulla and at the epithelial edge of the regenerating tail tip (FIGS. 4J and 4L). When NaV activity was blocked, Msx1 expression was abolished (FIGS. 4K and 4M).
# (§3) Embryos were fixed in MEMFA (Sive et al., 2000) and dehydrated in methanol. In situ hybridization was carried out according to standard protocols (Harland, 1991) with probes to: NaV1.2 (AY121368), NaV1.5 (Armisen et al., 2002), Notch1 (Coffman et al., 1990), and Msx1 (Feledy et al., 1999).
# [6] = test system: Msx1; assay: RNA in situ hybridization of Msx1 in the regeneration bud; conditions: 48 hpa, MS-222 after amputation
# From the text: as §2, §3
# [7] = test system: BMP2; assay: Expression level of BMP2 in the regeneration bud (data not shown); conditions: in the presence of MS-222, data not shown
# From the text: as §2
# [8] = test system: BMP4; assay: Expression level of BMP4 in the regeneration bud (data not shown); conditions: in the presence of MS-222, data not shown
# From the text: as §2
# [9] = test system: Delta; assay: Expression level of Delta in the regeneration bud (data not shown); conditions: in the presence of MS-222, data not shown
# [10] = test system: membrane voltage of regeneration bud cells; assay: Imaging of membrane voltage with the voltage dye DiBAC4(3); conditions: 24 hpa, versus control
# From the text: To gain a detailed mechanistic understanding of NaV1.2 activity, we examined the consequences of modulating Na^+ ion transport in the regenerating tail. During development, the intact tail is hyper-polarized with a few depolarized cells that are randomly distributed (Adams et al., 2007). However, after tail amputation, the presumptive regeneration bud becomes highly depolarized. […]. If the bud is polarized at this timepoint, then regeneration proceeds normally; if the bud remains depolarized (as when V-ATPase is inactivated, either during the refractory period or by Concanamycin), then regeneration fails. Because VGSC activity is also a well-known major determinant of a cell's membrane potential level, we hypothesized that loss of NaV1.2 activity could alter the membrane voltage state of the regeneration buds at 24 hpa.
# At 23 hpa, tadpoles were incubated in 90 μM of CoroNa Green indicator dye (Invitrogen) in 0.1×MMR for 45 minutes and washed twice in 0.1×MMR+30 uM BTS (to immobilize tadpole movement). At 24 hpa, the CoroNa Green signal was excited at […] and fluorescence emission data was collected at […]. Data was analyzed using IPLab software. For induction of Na^+ current, 0.1×MMR was supplemented with sodium gluconate (Sigma) to increase the Na^+ concentration to 90 mM. For refractory period analysis, tails were amputated at st. […]
# [11] = test system: axons of the regenerate; assay: Acetylated α-tubulin staining of axons in tail regenerates; conditions: 72 hpa (3-day) tails, MS-222 treated
# From the text: It has long been known that regenerative growth requires proper innervation (Singer, 1952, 1965). Thus, we asked whether NaV1.2 regulates neural regeneration by examining the neuronal pattern in the amputated tail of tadpoles treated with MS-222. In normal 3-day old tail regenerates, axons appear in bundles that grow and concentrate to the end of the regenerate, in a direction parallel to the anterior-posterior axis (FIG. 3G).
# as §1
# [12] = test system: regeneration bud; assay: Apoptosis in the regeneration bud (data not shown); conditions: MS-222 after tail amputation
# From the text: (§4) To characterize the temporal requirement of NaV1.2 function during regeneration, we looked to utilize pharmacological inhibitors of NaV1.2 that will enable us to vary the timing of the functional blockade. First, we determined whether chemical inhibition of NaV1.2 activity recapitulates its loss-of-function phenotype during regeneration. MS-222 (also known as tricaine) is a well-known inhibitor of VGSCs (Hedrick and Winmill, 2003) that blocks inward Na^+ currents (Frazier and Narahashi, 1975). […]. […] Importantly, the μM concentrations used for the tail assays were approximately ten-fold lower than what is usually used for amphibian anesthesia (generally in the mM range). Similar to the NaV1.2 RNAi experiment, the overall development and movement of the animals were normal during pharmacological treatment, and had no effect on primary tail formation during early embryogenesis. We conclude that NaV1.2 function is specifically required for regeneration, and that both pharmacological and molecular loss-of-function to selectively reveal the importance of NaV1.2.
# [13] = test system: Xenopus tadpoles; assay: Observation of overall development and movement of treated animals; conditions: during pharmacological treatment in the tail assay
# From the text: as §4
# [14] = test system: Xenopus tail regeneration during the refractory period; assay: Tail regeneration assay, tails amputated during the refractory period (stages 45-47)
# [15] = 24 hpa regeneration bud, MS-222 treated
compound,measurement,setting,value
C/C=C/[C@H]1O[C@@](O)([C@@H](C)[C@H](O)[C@H](C)[C@H]2OC(=O)/C(OC)=C/C(C)=C/[C@@H](C)[C@@H](O)[C@@H](CC)[C@@H](O)[C@H](C)C/C(C)=C/C=C/[C@@H]2OC)C[C@@H](O)[C@@H]1C [Concanamycin],NaV1.2 protein expression in the regeneration bud,[1]; 24 hpa,absent
same,NaV1.2 protein expression in the regeneration bud,[1]; 48 hpa,absent
CCOC(=O)c1cccc(N)c1.CS(=O)(=O)O [MS-222],Regeneration Index (RI),"[2]; MS-222 (250 μM per FIG. 2B) immediately after tail amputation, scored at 7 days, RI 0-300, controls RI=265",62
same,effect on regeneration,"[2]; MS-222 added at 48 hpa, after regenerative outgrowth has begun",no effect
same,tails that failed to regenerate,[2]; MS-222 for the first 48 hpa,78%
same,tadpoles in which tail regeneration was prevented,[2]; MS-222 for the first 24 hours post amputation,45%
same,tails with inhibited regeneration,[2]; MS-222 through the entire 7 days of the assay,82%
same,tail regeneration,[2],failed to regenerate; also recorded: inhibition of regeneration is dosage-dependent
same,CoroNa Green signal / Na^+ entry into the bud,[3]; [15],abolished; also recorded: blocks Na^+ entry into the bud
same,decrease in CoroNa Green signal versus control buds,[3]; [15],70%
same,decrease in the number of mitotic cells in the regeneration bud region,[4],90%
same,Notch1 RNA expression,[5],greatly reduced; also recorded: greatly down-regulated and mis-localized
same,Msx1 RNA expression,[6],abolished; also recorded: absent
same,level of BMP2,[7],greatly reduced
same,level of BMP4,[8],greatly reduced
same,level of Delta,[9],greatly reduced
same,change of membrane voltage in regeneration bud cells,[10],did not observe any changes in membrane voltage
same,axon pattern and quantity in the regenerate,[11],axons to extend circumferentially along the edge of the regeneration bud; also recorded: overall quantity of neurons appeared to be reduced
same,apoptosis in the bud,[12],did not induce significant apoptosis
same,overall development and movement of the animals,[13],normal
CN[C@@H]1C[C@H]2O[C@@](C)([C@@H]1OC)n1c3ccccc3c3c4c(c5c6ccccc6n2c5c31)C(=O)NC4 [Staurosporine],regenerative ability relative to controls,[2]; 10 nM STS on amputated tails,28 % of controls
same,tail regeneration,[2],strong reduction
same,overall development and movement of the animals,[13],otherwise unaffected
CC[C@@]1([C@@H]2O[C@@H]([C@H]3O[C@@](O)(CO)[C@H](C)C[C@@H]3C)C[C@@H]2C)CC[C@H]([C@]2(C)CC[C@]3(C[C@H](O)[C@@H](C)[C@@H]([C@@H](C)[C@@H](OC)[C@H](C)C(=O)O)O3)O2)O1 [monensin],Regeneration Index (RI),"[14]; 20 uM monensin in medium containing 90 mM Na^+ for one hour at 18 hpa, refractory controls 11.5, n=44",59.1
same,increase of regeneration over the control,"[14]; 20 μM monensin with 90 mM Na^+, 1 hour at 18 hpa",3 fold
same,tadpoles with induced regeneration,"[14]; 20 μM monensin with 90 mM Na^+, 1 hour at 18 hpa, 7 dpa, controls 11%",36%
same,regenerated tails showing good to full regeneration,"[14]; 20 μM monensin with 90 mM Na^+, 1 hour at 18 hpa, share of the regenerating tails",45%
same,regenerative ability,"[14]; monensin alone, without high extracellular Na^+, data not shown",did not improve regenerative ability
same,CoroNa Green signal at the amputation site,"[3]; refractory tails at 19 hpa, after one hour of 20 uM monensin in 90 mM Na^+ medium",strong CoroNa Green fluorescence; also recorded: significantly stronger CoroNa Green signal
insulin,animals showing good or full regeneration,"[14]; insulin at 0 hours post amputation, assayed at 7 days, control 16%",39%
same,Regeneration Index (RI),"[14]; insulin at 0 hours post amputation, assayed at 7 days, control RI=62, RI of 300 = full regeneration",118
